Measured values taken from ChEMBL document CHEMBL1153259, “Spiroepoxycyclohexadienone dimers: cytotoxic bisalkylating agents” (Bioorg Med Chem Lett, 1993).

How the values were obtained:
Assay type in all cases: functional, cell-based
L1210 = test: Compound was tested for cytotoxicity on L1210 leukemia cell line using a proliferation assay (MTT reduction); conditions: Mus musculus
HT-29 = test: Compound was tested for cytotoxicity on HT-29 colon cancer cell line using a proliferation assay (MTT reduction); conditions: Homo sapiens
A549 [1] = test: Compound was tested for cytotoxicity on A549 lung adenocarcinoma cell line using a proliferation assay (MTT reduction); conditions: Homo sapiens
A549 [2] = test: Compound was tested for cytotoxicity on A549 lung adenocarcinoma cell line using a proliferation assay (MTT reduction).; conditions: Homo sapiens

For `O[C@@H]1C=CC2C3C=CC(C2[C@@]12CO2)[C@@]1(CO1)[C@@H]3O` (stereo partly specified), the IC50 (L1210) was 22.5 µM, the IC50 (HT-29) was 17 µM and the IC50 (A549 [1]) was 31.5 µM.

Work on `O[C@@H]1CCC2C3C=CC(C2[C@@]12CO2)[C@@]1(CO1)[C@@H]3O` (stereo partly specified) yielded an IC50 (L1210) of 19.5 µM, an IC50 (HT-29) of 6 µM and an IC50 (A549 [1]) of 18 µM.

For `COC1=CC2C3C=CC(C2[C@@]2(CO2)C1=O)[C@@]1(CO1)C3=O` (stereo partly specified), the IC50 (L1210) was greater than 36 µM, the IC50 (HT-29) was 5.8 µM and the IC50 (A549 [1]) was 17.5 µM.

`O=C1C2C=CC(C3C2C=CC(=O)[C@]32CO2)[C@@]12CO2` (stereo partly specified) gave an IC50 (L1210) of 0.18 µM, an IC50 (A549 [2]) of 0.75 µM and an IC50 (HT-29) of 0.3 µM.

Compound `COC1=CC2C(C3C=CC2(OC)C(=O)[C@]32CO2)[C@@]2(CO2)C1=O` (stereo partly specified) has an IC50 (L1210) of 1 µM, an IC50 (HT-29) of 3.6 µM and an IC50 (A549 [1]) of 1.2 µM.

`O=C1C2C=CC(C3C2C2C/C(=N\Cc4ccccc4)[C@]3(O)CN2Cc2ccccc2)[C@@]12CO2` (stereo partly specified) gave an IC50 (L1210) greater than 28 µM, an IC50 (HT-29) of 27 µM and an IC50 (A549 [1]) greater than 28 µM.

`COc1cccc2c1C(=O)c1c(O)c3c(c(O)c1C2=O)C[C@@](O)(C(=O)CO)C[C@@H]3O[C@H]1C[C@H](N)[C@H](O)[C@H](C)O1` [DOXORUBICIN] gave an IC50 (L1210) of 0.04 µM, an IC50 (HT-29) of 0.12 µM and an IC50 (A549 [1]) of 0.1 µM.
